Experimental data as given in patent publication US5861387A, “Controlled release systems and low dose androgens” (Endorecherche Inc., priority 1995, dated 1999).
In brackets after ≈: the same amount, converted by molar mass. Read-outs that look alike come from different tables or passages of the source.

Tests used:
[1] = system: estrogen binding in the endometrium; details: oral, follicular phase; cited from earlier work
[2] = Stability to gamma sterilization (SEC, viscosity); assay type: physicochemical; details: 2.2 Megarads
Text: FIGS. 10A and 10B show, in (A), "the variation of the different parameters" [M(n-1), Mn, Mw, Mz,M(z+1)] characteristics of the molecular mass of 50:50 poly[DL-lactide-co-glycolide] following exposure to the indicated levels of gamma irradiation (Mrad); and, in (B), the variation of the polydensity (Mw/Mn) versus the level of gamma irradiation (Mrad).
Before injection, the microspheres were sterilized by exposure to 2.2 Megarads of gamma radiation achieved with a Cobalt-60 source (Gammacell 200). The stability of MPA was checked by steric exclusion chromatography (SEC) while the stability of the polymer was analyzed by SEC using polystyrene standards for calibration and by the modification of the relative viscosity using a Ubbelohde capillary viscometer.
Samples of batch MPA-MB-V have been exposed to different amounts of gamma radiation (0,1.1, 2.2 Megarads) and the molecular mass distribution parameters [M(n-1), Mn, Mw, Mz, M(z+1)] (see FIG. 10A) as well as their polydispersity (Mw/Mn) (FIG. 10B) were measured.

[3] = cited from earlier work
antibody 144A = assay: MPA radioimmunoassay, specificity of antibody 144A; assay type: binding, rabbit
Text: Antibody 144A was raised in rabbits against 17-hydroxyprogesterone-3-0-carboxymethyloxime-BSA. The labeled steroid used in the radioimmunoassay (RIA) was methyl-17α-hydroxyprogesterone acetate, 6α-[1,2-^3 H(N)]- obtained from NEN (CAT NO: NET 480) while the reference preparation was medroxyprogesterone acetate (MPA) obtained from Steraloids. The assay buffer used was 0.1% gelatin in 0.1M sodium phosphate, 0.15M sodium chloride, 0.1% sodium azide, pH 7.2. The extraction solvent mixture was ethyl ether-acetone (9:1, v:v) [EEA] while the LH-20 chromatography solvent mixture was iso-octane: toluene: methanol (90:5:5;v:v:v) [IOTH].
One ml of plasma was extracted twice with 5 ml of EEA. The extracts were evaporated to dryness with nitrogen and the remaining residue was dissolved in one ml of IOTH. The extracts were then subjected to LH-20 chromatography on […] columns (Coming CAT NO: 05 722A) filled with 2 g of LH-20 (Pharmacia). The gel was washed with 30 ml of IOTH before addition of one ml of sample and elution with IOTH. The first 6 ml were discarded. The following 10, 16.5 and 27.5 ml of eluent were fraction I (progesterone), II (MPA) and III (17-LH-progesterone), respectively. Fraction II was evaporated to dryness and reconstituted in 1.5 ml of assay buffer.
To each 12 x 75 mm borosilicate test tube was added: 0.2 ml containing 25,000 DPM of tritiated steroid, 0.5 ml of reference preparation ranging from 5 to 5000 pg/tube or 0.5 ml of extracted sample fraction II, 0.2 ml of antiserum 144A diluted 1/5000 or 0.2 ml of assay buffer to account for non specific binding. The tubes were then incubated overnight at 4° C. Then, 0.2 ml 2% charcoal Norit-A, 0.2% Dextran T-70 diluted in water was added. The tubes were then shaken gently and, after 10 min, they were centrifuged at 2000 x g for 10 min. The supernatant was mixed with 8 ml of Formula-989 (NEN: NEF-989) and the radioactivity was counted in a β-counter.

[4] = system: ZR-75-1 human breast cancer cells; details: cited from earlier work
breast cancer = details: high doses, unselected breast cancer patients; cited from earlier work
pituitary AR [5] = details: rat, in vivo; cited from earlier work
endometrial cancer = details: high dose; cited from earlier work
ventral prostate = details: rat, in vivo; cited from earlier work
endometriosis = details: high dose, 6 months, cited from earlier work
kidney = details: mouse, in vivo; cited from earlier work
pituitary AR [6] = details: in vivo; cited from earlier work
bone resorption = details: in vivo; cited from earlier work
bone [7] = details: in vivo; cited from earlier work
masculinizing activity = details: low blood concentrations; cited from earlier work
bone [8] = details: cited from earlier work
[9] = system: hypocalcemic effect of calcitonin; details: castrated rats; cited from earlier work
bone [10] = details: in vivo; cited from earlier work; remark: listed apart in the source

## CC(=O)O[C@]1(C(C)=O)CC[C@H]2[C@@H]3C[C@H](C)C4=CC(=O)CC[C@]4(C)[C@H]3CC[C@@]21C [MPA, 6-alpha-methyl,17-alpha-acetoxy progesterone]
[1]
  level of estrogen binding in the endometrium: decrease in the level of estrogen binding
[2]
  stability to gamma radiation: does not damage MPA
[3]; acne, hirsutism
  virilizing symptoms: seldom causes significant virilizing symptoms
[3]; human, in vivo
  adrenal function: Suppression of adrenal function
  glucocorticoid-like side effects: Cushingoid syndrome, euphoria and subjective pain relief
Antibody 144A; MPA radioimmunoassay
  ED50 value (RIA): 0.315 ng/mL (≈ 0.815 nM)
[4]
  concentration of maximal inhibitory action on human breast cancer cell growth: 1 nM
  dose required for glucocorticoid action relative to maximal growth inhibition: approximately 1000 fold
  mechanism of growth inhibition of ZR-75-1 cells: mainly due to the androgenic properties of the compound
Breast cancer
  overall clinical response rate: 40%
Pituitary AR [5]
  effect on gonadotropin secretion: inhibitory effect
Endometrial cancer
  treatment of endometrial cancer: successfully used
  treatment of endometrial carcinoma compared with Tamoxifen: success similar to that of Tamoxifen
Ventral prostate
  androgenic activity: exhibits androgenic activity
endometriosis; placebo 6%
  partial resolution: 13 % of subjects
endometriosis; placebo 12%
  resolution of the disease: 50 % of the patients
kidney
  androgenic activity: exhibits androgenic activity
Pituitary AR [6]
  effect on gonadotropin secretion: inhibitory effect

## CCCCCCCCCC(=O)O[C@H]1CC[C@H]2[C@@H]3CCC4=CC(=O)CC[C@@H]4[C@H]3CC[C@]12C [nandrolone decanoate]
Bone resorption
  bone resorption: reduced bone resorption
Bone [7]
  bone mass: increased bone mass
  bone resorption, osteoporotic women: reduced bone resorption

## C[C@]12CC[C@H]3[C@@H](CCC4=CC(=O)CC[C@@]43C)[C@@H]1CC[C@@H]2O [testosterone]
Antibody 144A
  cross-reactivity with antibody 144A: less than 0.1%
Masculinizing activity
  masculinizing activity: considerable masculinizing activity even at low blood concentrations
Bone [8]; hypogonadal males
  bone histomorphometry: increases in relative osteoid volume, total osteoid surface, linear extend of bone formation and bone mineralization
Bone [8]; in vivo
  nitrogen, calcium and phosphate balance: positive nitrogen, calcium and phosphate balance
  osteoid surfaces and beam width: increase osteoid surfaces and beam width
Bone [8]; men with primary hypogonadism
  bone formation: increases bone formation
[9]
  hypocalcemic effect of calcitonin: increases the hypocalcemic effect of calcitonin
Bone [10]
  overall quantity of bone: increases the overall quantity of bone
